These compounds were tested on SNU-16 (assay: Cell SNU-16 assay). Settings: Homo sapiens; SNU-16 cells.
Format: cell-based

SMILES	IC50 [nM]
C=C(C)C(=O)Nc1ccc(-c2c(-c3ccc(Oc4nccc(C)n4)c(F)c3)c3c(N)ncnc3n2C)cc1 [Example 1028]	≤ 100

Same assay, conditions: SNU-16 cells

SMILES	IC50 [nM]
C#Cc1ccc(-c2c(-c3ccc(Oc4nccc(C)n4)c(F)c3)c3c(N)ncnc3n2C(C)C)c(C)n1 (atropisomer, axis not shown) [Example 1258]	≤ 100
C#Cc1ccc(-c2c(-c3ccc(Oc4nccc(C)n4)c(F)c3)c3c(N)ncnc3n2C(C)C)c(C)n1 (atropisomer, axis not shown) [Example 1259]	≤ 100
C#Cc1cc(C)c(-c2c(-c3ccc(Oc4nccc(C)n4)c(F)c3)c3c(N)ncnc3n2C(C)C)cn1 (atropisomer, axis not shown) [Example 1307]	≤ 100
C#Cc1cc(C)c(-c2c(-c3ccc(Oc4nccc(C)n4)c(F)c3)c3c(N)ncnc3n2C(C)C)cn1 (atropisomer, axis not shown) [Example 1308]	≤ 100
C#Cc1cc(C)c(-c2c(-c3ccc(Oc4nccc(C)n4)c(F)c3)c3c(N)ncnc3n2C)c(F)n1 (atropisomer, axis not shown) [Example 1339]	≤ 100
C#Cc1cc(C)c(-c2c(-c3ccc(Oc4nccc(C)n4)c(F)c3)c3c(N)ncnc3n2C)c(F)n1 (atropisomer, axis not shown) [Example 1340]	≤ 100
C#Cc1cc(C)c(-c2c(-c3ccc(Oc4nccc(C)n4)c(F)c3)c3c(N)ncnc3n2C)c(C)n1 (atropisomer, axis not shown) [Example 1342]	≤ 100
C#Cc1cc(C)c(-c2c(-c3ccc(Oc4nccc(C)n4)c(F)c3)c3c(N)ncnc3n2C)c(C)n1 (atropisomer, axis not shown) [Example 1344]	≤ 100
C#Cc1cc(C)c(-c2c(C3=CC[C@H](C(=O)N4CCC[C@H]4C)CC3)c3c(N)ncnc3n2C)c(F)n1 (atropisomer, axis not shown) [Example 1348]	≤ 100
C#Cc1cc(C)c(-c2c(C3=CC[C@H](C(=O)N4CCC[C@H]4C)CC3)c3c(N)ncnc3n2C)c(F)n1 (atropisomer, axis not shown) [Example 1349]	≤ 100
C#Cc1ncc(-c2c(-c3ccc(Oc4nccc(C)n4)c(F)c3)c3c(N)ncnc3n2C(C)C)c(C)c1F (atropisomer, axis not shown) [Example 1360]	≤ 100
C#Cc1ncc(-c2c(-c3ccc(Oc4nccc(C)n4)c(F)c3)c3c(N)ncnc3n2C(C)C)c(C)c1F (atropisomer, axis not shown) [Example 1361]	≤ 100
C#Cc1cc(C)c(-c2c(C3=CC[C@H](C(=O)N4CCC[C@H]4C#N)CC3)c3c(N)ncnc3n2C)c(C)n1 (atropisomer, axis not shown) [Example 1470]	≤ 100
C#Cc1cc(C)c(-c2c(C3=CC[C@@H](C(=O)N4CCC[C@H]4C#N)CC3)c3c(N)ncnc3n2C)c(C)n1 (atropisomer, axis not shown) [Example 1472]	≤ 100
C#Cc1cc(C)c(-c2c(-c3ncc(Oc4nccc(C)n4)cc3F)c3c(N)ncnc3n2C)c(C)n1 (atropisomer, axis not shown) [Example 1493]	≤ 100
C=CC(=O)Nc1ccc(-c2c(C3=CC[C@H](C(=O)N4CCCC4)CC3)c3c(N)ncnc3n2C)cc1 (single isomer, unassigned) [Example 1049]	≤ 100
C=CC(=O)Nc1ccc(-c2c(C3=CC[C@@H](C(=O)N4CCCC4)CC3)c3c(N)ncnc3n2C)cc1 (single isomer, unassigned) [Example 1051]	≤ 100
C=C(C)C(=O)Nc1cc(C)c(-c2c(C3=CC[C@@H](C(=O)N4CCCC4)CC3)c3c(N)ncnc3n2C)c(C)c1 (single isomer, unassigned) [Example 1485]	1000 to 100000
C=C(C)C(=O)Nc1cc(C)c(-c2c(C3=CC[C@H](C(=O)N4CCCC4)CC3)c3c(N)ncnc3n2C)c(C)c1 (single isomer, unassigned) [Example 1487]	1000 to 100000
C=CC(=O)Nc1ccc(-c2c(-c3ccc(Oc4nccc(C)n4)c(F)c3)c3c(C)ncnc3n2C)c(C)c1 [Example 1127]	≤ 100
C#Cc1ncc(-c2c(C3=CC[C@H](C(=O)N4CCCC4)CC3)c3c(C)ncnc3n2C)c(C)n1 [Example 1179]	≤ 100
C#Cc1cc(C)c(-c2c(-c3ccc(Oc4nccc(C)n4)c(F)c3)c3c(C)ncnc3n2C)c(C)n1 [Example 1409]	≤ 100
C#Cc1cc(C)c(-c2c(-c3ccc(Oc4nccc(C)n4)c(F)c3)c3c(C)ncnc3n2C)c(C)n1 [Example 1410]	≤ 100
C#Cc1cc(C)c(-c2c(-c3ccc(Oc4nccc(C)n4)c(F)c3)c3c(C)ncnc3n2C)c(F)n1 [Example 1414]	≤ 100
C#Cc1cc(C)c(-c2c(-c3ccc(Oc4nccc(C)n4)c(F)c3)c3c(C)ncnc3n2C)c(F)n1 [Example 1415]	≤ 100
C#Cc1cc(OC)c(-c2c(C3=CC[C@H](C(=O)N4CCC[C@H]4C#N)CC3)c3c(C)ncnc3n2C)c(C)n1 [Example 1474]	≤ 100
C#Cc1cc(OC)c(-c2c(-c3ncc(Oc4nccc(C)n4)cc3F)c3c(N)ncnc3n2C)cn1 [Example 1489]	≤ 100
C#Cc1cc2c(cn1)-c1c(-c3ccc(Oc4nccc(C)n4)c(F)c3)c3c(N)ncnc3n1CCO2 [Example 1494]	≤ 100

Each compound was assayed against FGFR2 (Homo sapiens (Human), UniProt P21802) (assay: Biochemical FGFR2 Caliper assay). Settings: not given.
Chain of FGFR2 (P21802 22-821): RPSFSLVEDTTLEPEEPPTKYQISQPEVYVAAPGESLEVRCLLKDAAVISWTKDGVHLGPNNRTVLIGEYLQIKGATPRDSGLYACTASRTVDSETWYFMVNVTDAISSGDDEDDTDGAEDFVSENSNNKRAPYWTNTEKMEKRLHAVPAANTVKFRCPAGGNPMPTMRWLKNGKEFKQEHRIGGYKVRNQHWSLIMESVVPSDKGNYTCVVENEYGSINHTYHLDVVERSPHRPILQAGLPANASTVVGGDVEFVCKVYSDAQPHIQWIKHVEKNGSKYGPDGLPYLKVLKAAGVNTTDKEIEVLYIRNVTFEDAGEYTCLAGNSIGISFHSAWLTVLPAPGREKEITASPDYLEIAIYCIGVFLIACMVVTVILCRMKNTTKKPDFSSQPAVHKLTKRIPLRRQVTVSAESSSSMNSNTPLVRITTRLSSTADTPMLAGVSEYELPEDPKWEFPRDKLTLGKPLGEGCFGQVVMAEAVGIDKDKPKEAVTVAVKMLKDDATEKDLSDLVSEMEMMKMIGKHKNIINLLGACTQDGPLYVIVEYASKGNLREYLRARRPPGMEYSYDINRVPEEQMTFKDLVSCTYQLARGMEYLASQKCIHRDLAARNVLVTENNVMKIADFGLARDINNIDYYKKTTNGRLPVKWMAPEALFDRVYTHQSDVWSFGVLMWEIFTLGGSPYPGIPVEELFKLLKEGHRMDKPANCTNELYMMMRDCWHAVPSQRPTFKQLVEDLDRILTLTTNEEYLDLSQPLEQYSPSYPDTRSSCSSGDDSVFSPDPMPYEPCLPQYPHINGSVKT

SMILES	IC50 [nM]
C#Cc1cc(C)c(-c2c(C3=CC[C@H](C(=O)N4CCC[C@H]4C)CC3)c3c(N)ncnc3n2C)c(F)n1 (atropisomer, axis not shown) [Example 1348]	100 to 250
C#Cc1ncc(-c2[nH]c3ncnc(N)c3c2-c2ccc(Oc3nccc(C)n3)cc2)c(C)n1 [Example 1159]	250 to 1000
Cn1c(-c2ccc(C#N)cc2)c(-c2ccccc2)c2c(N)ncnc21 [Example 1173]	1000 to 100000
C#Cc1ccc(-c2c(-c3ccc(Oc4nccc(C)n4)c(F)c3)c3c(C)ncnc3n2C)c(C)n1 [Example 1174]	1000 to 100000
C#Cc1cnc(-c2c(-c3ccc(Oc4nccc(C)n4)cc3)c3c(N)ncnc3n2C)c(C)n1 [Example 1176]	1000 to 100000
C#Cc1ncc(-c2c(-c3ccc(Oc4nccc(C)n4)cc3)c3c(N)ncnc3n2C)cc1OC [Example 1178]	1000 to 100000
C=C(C)C(=O)Nc1ccc(-c2c(C3=CCN(C(=O)OCc4ccccc4)CC3)c3c(N)ncnc3n2C)cc1 [Example 1190]	1000 to 100000
C=C(C)C(=O)Nc1ccc(-c2c(-c3ccc(-n4cc(C)cn4)cc3)c3c(N)ncnc3n2C)cc1 [Example 1191]	1000 to 100000
C#Cc1ccc(-c2c(-c3ccccc3)c3c(N)ncnc3n2C)cn1 [Example 1192]	< 100
C=Cc1cc(-c2c(-c3ccccc3)c3c(N)ncnc3n2C)ccn1 [Example 1195]	100 to 250
C#Cc1cc(C)c(-c2c(-c3ccc(Oc4nccc(C)n4)cc3F)c3c(N)ncnc3n2C)cn1 [Example 1196]	250 to 1000
C=C(C)C(=O)Nc1ccc(-c2c(-c3cc4ccccc4s3)c3c(N)ncnc3n2C)cc1 [Example 1209]	250 to 1000
C=C(C)C(=O)Nc1ccc(-c2c(C3=CCN(c4ccccc4)CC3)c3c(N)ncnc3n2C)cc1 [Example 1216]	1000 to 100000
C=CC(=O)Nc1ccc(-c2c(-c3ccc(Oc4ccccc4)cc3)c3c(C)ncnc3n2C(C)C)cc1 [Example 1218]	1000 to 100000
C=CC(=O)Nc1ccc(-c2c(-c3ccc(Oc4cccc(C)n4)cc3)c3c(C)ncnc3n2C)cc1 [Example 1220]	< 100
C=C(C)C(=O)Nc1ccc(-c2c(-c3cc(-c4ccccc4)cs3)c3c(N)ncnc3n2C)cc1 [Example 1221]	250 to 1000
C=C(C)C(=O)Nc1ccc(-c2c(C3=CCC(c4nc(C)no4)CC3)c3c(N)ncnc3n2C)cc1 (stereo not drawn) [Example 1222]	1000 to 100000
C=CC(=O)Nc1ccc(-c2c(-c3cc4ccccc4s3)c3c(C)ncnc3n2C)cc1 [Example 1223]	1000 to 100000
C=C(C)C(=O)Nc1ccc(-c2c(-c3ccc(-c4coc(C)n4)cc3)c3c(N)ncnc3n2C)cc1 [Example 1224]	250 to 1000

SMILES	IC50 [nM]
C=CC(=O)Nc1ccc(-c2c(-c3ccc(Oc4ccccc4)cc3)c3c(C)ncnc3n2C)cc1 [Example 1225]	250 to 1000
C=C(C)C(=O)Nc1ccc(-c2c(-c3ccc(-n4cc(C(F)(F)F)cn4)cc3)c3c(N)ncnc3n2C)cc1 [Example 1226]	1000 to 100000
C=C(C)C(=O)Nc1ccc(-c2c(C3=CCC(c4ccccc4)CC3)c3c(N)ncnc3n2C)cc1 (stereo not drawn) [Example 1227]	1000 to 100000
C=C(C)C(=O)Nc1ccc(-c2c(-c3ccc(-c4nc(C)no4)cc3)c3c(N)ncnc3n2C)cc1 [Example 1244]	1000 to 100000
C=C(C)C(=O)Nc1ccc(-c2c(-c3sc4ccccc4c3C)c3c(N)ncnc3n2C)cc1 [Example 1247]	1000 to 100000
C=CC(=O)Nc1ccc(-c2c(-c3ccccc3)c3c(C)ncnc3n2C)cc1 [Example 1248]	1000 to 100000
C=CC(=O)Nc1ccc(-c2[nH]c3ncnc(C)c3c2-c2ccc(Oc3ccccc3)cc2)cc1 [Example 1254]	1000 to 100000
C=CC(=O)Nc1ccc(-c2[nH]c3ncnc(C)c3c2-c2cc3ccccc3s2)cc1 [Example 1256]	1000 to 100000
C=C(C)C(=O)Nc1ccc(-c2c(-c3ccc(-c4noc(C5CC5)n4)c([N+](=O)[O-])c3)c3c(N)ncnc3n2C)cc1 [Example 1317]	1000 to 100000
C=C(C)C(=O)Nc1ccc(-c2c(-c3ccc(-c4noc(C5CC5)n4)c(N)c3)c3c(N)ncnc3n2C)cc1 [Example 1318]	1000 to 100000
C=C(F)C(=O)Nc1ccc(-c2c(-c3ccc(-c4noc(C5CC5)n4)cc3)c3c(N)ncnc3n2C)cc1 [Example 1326]	100 to 250
C=C(C)C(=O)Nc1ccc(-c2c(-c3ccc(-c4noc(C5CC5)n4)cc3)c3c(N)ncnc3n2C)cc1 [Example 1333]	250 to 1000
C=CC(=O)Nc1ccc(-c2c(-c3ccc(-c4noc(C5CC5)n4)cc3)c3c(N)ncnc3n2C)cc1 [Example 1335]	< 100
C=C(C)C(=O)Nc1ccc(-c2c(-c3ccc(-c4noc(C5CC5)n4)cc3)c3c(N)ncnc3n2C)cn1 [Example 1362]	100 to 250
C#Cc1cc2c(cn1)-c1c(C3=CC[C@@H](C(=O)N4CCC[C@H]4C#N)CC3)c3c(N)ncnc3n1CCC2 [Example 1444]	< 100
[2H]C#Cc1cc2c(cn1)-c1c(-c3ccc(Oc4nccc(C)n4)c(F)c3)c3c(N)ncnc3n1CCC2 [Example 1449]	< 100
C#Cc1cc(OC)c(-c2c(-c3ncc(Oc4nccc(C)n4)cc3F)c3c(N)ncnc3n2C)c(C)n1 [Example 1451]	< 100
C#Cc1cc2c(cn1)-c1c(C3=CC[C@H](C(=O)N4CCC[C@H]4C#N)CC3)c3c(N)ncnc3n1CCC2 [Example 1496]	250 to 1000

Reference: patent US11780845B2 (Relay Therapeutics, Inc., priority 2019, dated 2023)
